Source: article PMC3853373 (Archives of biochemistry and biophysics, 2013)
“And” between values parts separate entries of the source, which are not always exact repeats. Identical values can stand only once. Like-named read-outs stand apart in the source and are kept apart here.

Assays:
human PNMT (hPNMT) [1] = target: T1, human PNMT (hPNMT) (Homo sapiens, UniProt P11086); assay: Determination of inhibition constants and inhibition patterns for hPNMT; assay type: biochemical; conditions: pH 8.0, 30 °C; for Ki: read-out: Kis
T1 sequence (P11086 1-282): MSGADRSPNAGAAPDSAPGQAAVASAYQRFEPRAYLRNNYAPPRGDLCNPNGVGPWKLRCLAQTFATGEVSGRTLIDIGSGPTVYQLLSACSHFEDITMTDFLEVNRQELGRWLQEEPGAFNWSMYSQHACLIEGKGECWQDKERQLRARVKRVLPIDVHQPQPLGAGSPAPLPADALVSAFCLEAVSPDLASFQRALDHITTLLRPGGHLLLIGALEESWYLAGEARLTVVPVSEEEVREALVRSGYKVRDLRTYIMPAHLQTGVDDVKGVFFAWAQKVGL

human PNMT (hPNMT) [2] = target: T1, human PNMT (hPNMT); assay: pH dependence of hPNMT kinetic parameters and of Ki for SK&F 29661; conditions: pH 6-10, 30 °C; fit to eq 6
human PNMT (hPNMT) [3] = target: T1, human PNMT (hPNMT); assay: Isothermal titration calorimetry of ligand binding to hPNMT; conditions: for binding to free hPNMT: no AdoMet or AdoHcy present
human PNMT (hPNMT) [4] = target: T1, human PNMT (hPNMT); assay: hPNMT initial velocity studies; assay type: biochemical
human PNMT (hPNMT) [5] = target: T1, human PNMT (hPNMT); conditions: pH 8.0, 30 °C; ref [30]; cited from earlier work
[6] = varied substrate AdoMet, fixed PEA 100 μM
[7] = varied substrate PEA, fixed AdoMet 5 μM

Nc1ncnc2c1ncn2[C@@H]1O[C@H](CSCC[C@H](N)C(=O)O)[C@@H](O)[C@H]1O [AdoHcy, S-adenosyl-L-homocysteine]
Ki (human PNMT (hPNMT) [1]; [6]): 0.8 ± 0.04 µM
Ki (human PNMT (hPNMT) [1]; [7]): 2.5 ± 0.28 µM
Kii (human PNMT (hPNMT) [1]; [7]): 1.0 ± 0.02 µM

C[S+](CC[C@H](N)C(=O)[O-])C[C@H]1O[C@@H](n2cnc3c(N)ncnc32)[C@H](O)[C@@H]1O (stereo partly drawn) [AdoMet, S-adenosyl-L-methionine]
pKa2 from LogV/K pH profile (human PNMT (hPNMT) [2]): 7.25
pKa3 from LogV/K pH profile (human PNMT (hPNMT) [2]): 9.15 ± 0.12
Kd (human PNMT (hPNMT) [3]): 4.6 ± 0.7 µM

CNC[C@H](O)c1ccc(O)c(O)c1 [Epinephrine, epinephrine]
preference for binding in presence of AdoHcy over AdoMet (human PNMT (hPNMT) [3]; ITC): 5 fold
Kii (human PNMT (hPNMT) [1]; [6]): 22 ± 0.8 µM
Kii (human PNMT (hPNMT) [1]; [7]): 51 ± 1.0 µM

NC[C@H](O)c1ccc(O)c(O)c1 [NE, norepinephrine]
Kd (human PNMT (hPNMT) [3]): 7.2 ± 0.2 µM
binding to free hPNMT (human PNMT (hPNMT) [3]; ITC): did not bind

NCC(O)c1ccc(O)cc1 (stereo not drawn) [Octopamine, octopamine]
Kd (human PNMT (hPNMT) [3]): 3.3 ± 0.1 µM
binding to free hPNMT (human PNMT (hPNMT) [3]; ITC): did not bind
Kia (human PNMT (hPNMT) [4]; dissociation constant from eq 1, phosphate buffer pH 8.0, 30 °C): 2.1 ± 0.2 µM
Km lower than that of PEA (human PNMT (hPNMT) [4]; ratio of Km values against PEA): 20 fold

NCC(O)c1ccccc1 (stereo not drawn) [PEA, phenylethanolamine]
pKa2 from LogV/K pH profile (human PNMT (hPNMT) [2]): 8.66 and 8.66 ± 0.03
pKa3 from LogV/K pH profile (human PNMT (hPNMT) [2]): 9.26 and 9.26 ± 0.03
Kd (human PNMT (hPNMT) [3]): 60 ± 2 µM
binding to free hPNMT (human PNMT (hPNMT) [3]; ITC): did not bind
kcat (human PNMT (hPNMT) [5]): 0.0473 ± 0.00167 s⁻¹
kcat/Ka (human PNMT (hPNMT) [5]): (2.8 ± 0.2) × 10^4 M^−1 min^−1
